Target: GST tagged truncated human mutant G2019S LRRK2 (Homo sapiens (Human), UniProt Q5S007, G2019S)
Assay: LRRK2 Km ATP LanthaScreen Assay
Format: biochemical
Settings: G2019S LRRK2, 134 μM ATP (Km ATP), mean values; for IC50: read-out: LRRK2 pIC50 (converted)
Method in brief: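 Enzyme (GST-tagged, truncated) was preincubated with compound for 15 min at RT in 50 mM Tris pH 8.5, 10 mM MgCl2, 0.01% Brij-35, 1 mM EGTA, 2 mM DTT and 0.05 mM orthovanadate. Fluorescein-LRRKtide and 134 μM ATP (Km) were then added for 90 min. EDTA and Tb-anti-pERM antibody stopped the reaction; the TR-FRET 520/495 ratio gave 4-parameter IC50s, reported as mean pIC50.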

GST tagged truncated human mutant G2019S LRRK2, sequence (Q5S007 970-2527 G2019S): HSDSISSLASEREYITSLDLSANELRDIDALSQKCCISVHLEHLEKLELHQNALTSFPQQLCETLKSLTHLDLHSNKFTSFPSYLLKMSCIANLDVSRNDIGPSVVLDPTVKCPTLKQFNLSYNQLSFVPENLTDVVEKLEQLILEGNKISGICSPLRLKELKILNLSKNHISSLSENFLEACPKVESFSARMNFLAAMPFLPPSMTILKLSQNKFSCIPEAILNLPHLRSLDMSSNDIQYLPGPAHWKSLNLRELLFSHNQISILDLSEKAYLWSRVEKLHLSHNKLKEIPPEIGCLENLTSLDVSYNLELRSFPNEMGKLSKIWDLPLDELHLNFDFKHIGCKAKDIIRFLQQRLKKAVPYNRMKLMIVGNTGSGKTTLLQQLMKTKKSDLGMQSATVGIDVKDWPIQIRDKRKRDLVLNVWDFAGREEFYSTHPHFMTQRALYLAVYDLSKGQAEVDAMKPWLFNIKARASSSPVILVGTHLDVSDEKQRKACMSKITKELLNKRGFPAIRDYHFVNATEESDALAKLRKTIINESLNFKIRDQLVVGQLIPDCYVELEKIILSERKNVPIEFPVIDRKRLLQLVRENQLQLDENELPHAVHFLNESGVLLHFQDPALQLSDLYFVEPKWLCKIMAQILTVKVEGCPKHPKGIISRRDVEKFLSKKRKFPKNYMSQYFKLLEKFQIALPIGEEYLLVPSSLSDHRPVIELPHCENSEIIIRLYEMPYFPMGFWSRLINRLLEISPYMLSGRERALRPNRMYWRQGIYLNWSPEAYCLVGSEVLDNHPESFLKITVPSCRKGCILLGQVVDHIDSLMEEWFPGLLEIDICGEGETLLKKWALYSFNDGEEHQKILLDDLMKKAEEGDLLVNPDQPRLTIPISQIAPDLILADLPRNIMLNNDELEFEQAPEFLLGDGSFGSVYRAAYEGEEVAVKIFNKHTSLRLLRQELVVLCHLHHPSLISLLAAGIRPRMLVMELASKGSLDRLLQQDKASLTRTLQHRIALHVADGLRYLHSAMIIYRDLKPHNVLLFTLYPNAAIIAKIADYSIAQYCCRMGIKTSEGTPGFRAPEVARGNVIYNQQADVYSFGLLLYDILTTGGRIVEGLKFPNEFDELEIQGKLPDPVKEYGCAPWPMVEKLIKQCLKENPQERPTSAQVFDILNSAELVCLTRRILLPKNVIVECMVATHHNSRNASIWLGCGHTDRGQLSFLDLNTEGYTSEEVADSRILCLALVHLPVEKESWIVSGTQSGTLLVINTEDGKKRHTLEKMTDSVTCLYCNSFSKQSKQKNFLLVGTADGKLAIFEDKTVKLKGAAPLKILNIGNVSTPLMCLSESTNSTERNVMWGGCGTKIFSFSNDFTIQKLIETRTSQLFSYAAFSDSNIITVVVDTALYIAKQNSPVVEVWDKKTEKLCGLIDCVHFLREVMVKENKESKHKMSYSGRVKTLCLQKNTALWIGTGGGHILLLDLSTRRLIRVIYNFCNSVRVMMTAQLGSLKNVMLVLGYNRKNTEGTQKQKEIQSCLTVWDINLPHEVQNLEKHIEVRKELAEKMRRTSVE

Structure (SMILES)	LRRK2 pIC50	IC50
CC1(N2CCC(c3cc4nc(Nc5cnn(CC(F)F)c5Cl)ncc4cc3Cl)CC2)COC1 [Ex-4.98, 6-chloro-N-[5-chloro-1-(2,2-difluoroethyl)-1H-pyrazol-4-yl]-7-[1-(3-methyloxetan-3-yl)piperidin-4-yl]quinazolin-2-amine]	>9.20	–
Cc1cc2cnc(Nc3cnn(CC(C)(C)O)c3C)nc2cc1[C@H]1CCN(C2COC2)C[C@@H]1F (single isomer, unassigned) [Ex-5.6, (3S,4S) or (3R,4R) 1-[4-({7-[3-fluoro-1-(oxetan-3-yl)piperidin-4-yl]-6-methylquinazolin-2-yl}amino)-5-methyl-1H-pyrazol-1-yl]-2-methylpropan-2-ol]	8.68	–
C[C@]1(N2CC[C@@H](c3cc4nc(Nc5cnn(C6CC6)c5Cl)ncc4cc3Cl)[C@H](F)C2)COC[C@H]1O (single isomer, unassigned) [Ex-4.247, (3S,4S)(3S,4S) or (3S,4S)(3R,4R) or (3R,4R)(3S,4S) or (3R,4R)(3R,4R) 4-(4-{6-chloro-2-[(5-chloro-1-cyclopropyl-1H-pyrazol-4-yl)amino]quinazolin-7-yl}-3-fluoropiperidin-1-yl)-4-methyloxolan-3-ol]	>9.20	–
Cn1ncc(Nc2ncc3cc(Cl)c([C@H]4CCN([C@H]5COC[C@H]5O)C[C@@H]4F)cc3n2)c1Cl (single isomer, unassigned) [Ex-4.188, (3S,4S)(3S,4S) or (3S,4S)(3R,4R) or (3R,4R)(3S,4S) or (3R,4R)(3R,4R) 4-(4-{6-chloro-2-[(5-chloro-1-methyl-1H-pyrazol-4-yl)amino]quinazolin-7-yl}-3-fluoropiperidin-1-yl)oxolan-3-ol]	7.83	–
Cc1cc(Nc2ncc3cc(Cl)c(C4CCN(C5COC5)CC4)cc3n2)sn1 [Ex-4.45, 6-chloro-N-(3-methyl-1,2-thiazol-5-yl)-7-[1-(oxetan-3-yl)piperidin-4-yl]quinazolin-2-amine]	>9.20	–
CO[C@H]1COC[C@H]1N1CC[C@@H](c2cc3nc(Nc4cnn(C5CC5)c4Cl)ncc3cc2C)[C@H](F)C1 (single isomer, unassigned) [Ex-4.250, (3S,4S)(3S,4S) or (3S,4S)(3R,4R) or (3R,4R)(3S,4S) or (3R,4R)(3R,4R) N-(5-chloro-1-cyclopropyl-1H-pyrazol-4-yl)-7-[3-fluoro-1-(4-methoxyoxolan-3-yl)piperidin-4-yl]-6-methylquinazolin-2-amine]	8.22	–
Clc1cc2cnc(Nc3cnn(C4COC4)c3Cl)nc2cc1C1CCN(C2COC2)CC1 [Ex-4.17, 6-chloro-N-[5-chloro-1-(oxetan-3-yl)-1H-pyrazol-4-yl]-7-[1-(oxetan-3-yl)piperidin-4-yl]quinazolin-2-amine]	>9.20	–
Cc1c(Nc2ncc3cc(Cl)c(C4CCN(C[C@@H](O)c5ccc(F)c(F)c5)CC4)cc3n2)cnn1C1CC1 [Ex-4.200, (1S)-2-(4-{6-chloro-2-[(1-cyclopropyl-5-methyl-1H-pyrazol-4-yl)amino]quinazolin-7-yl}piperidin-1-yl)-1-(3,4-difluorophenyl)ethan-1-ol]	8.76	–
O[C@@H]1COCC1N1CC[C@@H](c2cc3nc(Nc4cnn(C5CC5)c4Cl)ncc3cc2Cl)[C@H](F)C1 (single isomer, unassigned) [Ex-4.123, (3S,4S)(3S,4S) or (3S,4S)(3R,4R) or (3R,4R)(3S,4S) or (3R,4R)(3R,4R) 4-{6-chloro-2-[(5-chloro-1-cyclopropyl-1H-pyrazol-4-yl)amino]quinazolin-7-yl}-3-fluoropiperidin-1-yl]oxolan-3-ol]	8.37	–
Cc1c(Nc2ncc3cc(Cl)c([C@H]4CCN(C5CCCC5O)C[C@@H]4F)cc3n2)cnn1C1CC1 (single isomer, unassigned) [Ex-4.160, (1S,2R)(3S,4S) or (1R,2S)(3S,4S) or (1R,2R)(3S,4S) or (1S,2S)(3S,4S) or (1S,2R)(3R,4R) or (1R,2S)(3R,4R) or (1R,2R)(3R,4R) or (1S,2S)(3R,4R) 2-(4-{6-chloro-2-[(1-cyclopropyl-5-methyl-1H-pyrazol-4-yl)amino]quinazolin-7-yl}-3-fluoropiperidin-1-yl)cyclopentan-1-ol]	>9.20	–
[2H]C([2H])([2H])n1nc(C)cc1Nc1ncc2cc(Cl)c(C3CCN([C@H]4COC[C@H]4O)CC3)cc2n1 (single isomer, unassigned) [Ex-2.69, (3S,4S) or (3R,4R) 4-(4-(6-chloro-2-((3-methyl-1-(methyl-d3)-1H-pyrazol-5-yl)amino)quinazolin-7-yl)piperidin-1-yl)tetrahydrofuran-3-ol]	8.21	–
CC(n1ncc(Nc2ncc3cc(Cl)c([C@@H]4CCN(C)C[C@H]4F)cc3n2)c1Cl)C(C)(C)O (single isomer, unassigned) [Ex-4.60, (R)(3S,4S) or (R)(3R,4R) or (S)(3S,4S) or (S)(3R,4R) 3-(5-chloro-4-{[6-chloro-7-(3-fluoro-1-methylpiperidin-4-yl)quinazolin-2-yl]amino}-1H-pyrazol-1-yl)-2-methylbutan-2-ol]	8.69	–
[2H]C([2H])([2H])n1ncc(Nc2ncc3cc(Cl)c(C4CCN([C@]5(C)COC[C@@H]5O)CC4)cc3n2)c1C (single isomer, unassigned) [Ex-1.26, (3S,4S) or (3R,4R)-4-(4-(6-chloro-2-((5-methyl-1-(methyl-d3)-1H-pyrazol-4-yl)amino)quinazolin-7-yl)piperidin-1-yl)-4-methyltetrahydrofuran-3-ol]	>9.20	–
Clc1cc2cnc(Nc3cnn(C4CC4)c3Cl)nc2cc1C1CC2COCC(C1)N2C1COC1 (stereo not drawn) [Ex-4.113, cis or trans 6-chloro-N-(5-chloro-1-cyclopropyl-1H-pyrazol-4-yl)-7-(9-(oxetan-3-yl)-3-oxa-9-azabicyclo[3.3.1]nonan-7-yl)quinazolin-2-amine]	8.11	–
Cc1c(Nc2ncc3cc(Cl)c(C4CCN(C5CCC(CC#N)C5)CC4)cc3n2)cnn1C1CC1 (single isomer, unassigned) [Ex-4.168, (1R,3R) or (1S,3R) or (1R,3S) or (1S,3S) [3-(4-{6-chloro-2-[(1-cyclopropyl-5-methyl-1H-pyrazol-4-yl)amino]quinazolin-7-yl}piperidin-1-yl)cyclopentyl]acetonitrile]	8.88	–
Cc1c(Nc2ncc3cc(Cl)c(C4CCN(C5(C)COC5)CC4)cc3n2)cnn1C1CC1(F)F (single isomer, unassigned) [Ex-2.29, (S) or (R) 6-chloro-N-[1-(2,2-difluorocyclopropyl)-5-methyl-1H-pyrazol-4-yl]-7-[1-(3-methyloxetan-3-yl)piperidin-4-yl]quinazolin-2-amine]	–	1.66 nM
CC(n1ncc(Nc2ncc3cc(Cl)c([C@@H]4CCN(C5COC5)C[C@H]4F)cc3n2)c1Cl)C(C)(C)O (single isomer, unassigned) [Ex-4.69, (R)(3S,4S) or (R)(3R,4R) or (S)(3S,4S) or (S)(3R,4R) 3-[5-chloro-4-({6-chloro-7-[3-fluoro-1-(oxetan-3-yl)piperidin-4-yl]quinazolin-2-yl}amino)-1H-pyrazol-1-yl]-2-methylbutan-2-ol]	9.13	–
Cc1c(Nc2ncc3cc(Cl)c(C4CCN(C[C@H](O)c5ccc(F)c(F)c5)CC4)cc3n2)cnn1C1CC1 [Ex-4.199, (1R)-2-(4-{6-chloro-2-[(1-cyclopropyl-5-methyl-1H-pyrazol-4-yl)amino]quinazolin-7-yl}piperidin-1-yl)-1-(3,4-difluorophenyl)ethan-1-ol]	7.96	–
Cc1cc2cnc(Nc3cnn(C4CC4(F)F)c3C)nc2cc1C1CCN([C@@H]2COC[C@@H]2O)CC1 (single isomer, unassigned) [Ex-4.142, (R)(3S,4S) or (S)(3S,4S) or (R)(3R,4R) or (S)(3R,4R) 4-[4-(2-{[1-(2,2-difluorocyclopropyl)-5-methyl-1H-pyrazol-4-yl]amino}-6-methylquinazolin-7-yl)piperidin-1-yl]oxolan-3-ol]	8.94	–
CC1OCC1N1CC[C@H](c2cc3nc(Nc4cnn(CC(C)(C)O)c4Cl)ncc3cc2Cl)[C@@H](F)C1 (single isomer, unassigned) [Ex-4.74, (3S,4S)(2R,3R) or (3S,4S)(2S,3S) or (3R,4R)(2R,3R) or (3R,4R)(2S,3S) or (3R,4R)(2S,3R) or (3R,4R)(2R,3S) or (3S,4S)(2S,3R) or (3S,4S)(2R,3S) 1-[5-chloro-4-({6-chloro-7-[3-fluoro-1-(2-methyloxetan-3-yl)piperidin-4-yl]quinazolin-2-yl}amino)-1H-pyrazol-1-yl]-2-methylpropan-2-ol]	9.19	–
Cc1cc2cnc(Nc3cnn(C4CC4)c3Cl)nc2cc1C1CCN([C@@]2(C)COC[C@H]2O)CC1 (single isomer, unassigned) [Ex-2.36, (3S,4S) or (3R,4R) 4-(4-{2-[(5-chloro-1-cyclopropyl-1H-pyrazol-4-yl)amino]-6-methylquinazolin-7-yl}piperidin-1-yl)-4-methyloxolan-3-ol]	–	< 0.631 nM
CC1(N2CC3(CC(n4cc(Nc5ncc6cc(Cl)c(C7CC78CC8)cc6n5)cn4)C3)C2)COC1 (single isomer, unassigned) [Ex-2.8, (S) or (R) 6-chloro-N-{1-[2-(3-methyloxetan-3-yl)-2-azaspiro[3.3]heptan-6-yl]-1H-pyrazol-4-yl}-7-(spiro[2.2]pentan-1-yl)quinazolin-2-amine]	–	1.26 nM
Cc1cc(Nc2ncc3cc(C)c([C@H]4CCN([C@H]5COC[C@H]5O)C[C@@H]4F)cc3n2)n(C)n1 (single isomer, unassigned) [Ex-5.12, (3S,4S)(3S,4S) or (3S,4S)(3R,4R) or (3R,4R)(3S,4S) or (3R,4R)(3R,4R) 4-(4-{2-[(1,3-dimethyl-1H-pyrazol-5-yl)amino]-6-methylquinazolin-7-yl}-3-fluoropiperidin-1-yl)oxolan-3-ol]	6.03	–

From US12540131B2 (Merck Sharp & Dohme LLC, priority 2019, dated 2026)
